Measured values from ChEMBL document CHEMBL4411300 (Eur J Med Chem, 2019).
Calls of active or inactive are those of the source. The calls are words filed in the database; no cut-off is given here.

Columns and labels:
[1] = (§1) Hepatotoxicity in Balb/c mouse infected with Trypanosoma cruzi MHOM/Pe/2011/Arequipa DTU 5 trypomastigotes assessed as increase in ratio of serum ALT to GPT level at 20 mg/kg, po once daily for 5 consecutive days starting from day 75 post infection measured on day 81 post infection relative to control; format: toxicity, organism-based; settings: in vivo
[2] = as §1, with “Cardiotoxicity” for “Hepatotoxicity”, “decrease” for “increase”, “creatine kinase in muscle” for “serum ALT”, “brain” for “GPT level”; format: toxicity, organism-based; parameters: scale not given: the % may be the effect or the level left; settings: in vivo
[3] = Nephrotoxicity in Balb/c mouse infected with Trypanosoma cruzi MHOM/Pe/2011/Arequipa DTU 5 trypomastigotes assessed as decrease in serum urea level at 20 mg/kg, po once daily for 5 consecutive days starting from day 10 post infection measured on day 127 post infection relative to control; format: toxicity, organism-based; parameters: scale not given: the % may be the effect or the level left; settings: in vivo
[4] = (§2) Cardiotoxicity in Balb/c mouse infected with Trypanosoma cruzi MHOM/Pe/2011/Arequipa DTU 5 trypomastigotes assessed as change in serum LDH level at 20 mg/kg, po once daily for 5 consecutive days starting from day 10 post infection measured on day 16 post infection by biochemical analysis (reference value: 3275 U/L); format: toxicity, organism-based; settings: in vivo
Trypanosoma cruzi [5] = assay: (§3) Antitrypanosomal activity against Trypanosoma cruzi MHOM/Pe/2011/Arequipa DTU 5 trypomastigotes infected in Balb/c mouse assessed as reduction in parasitaemia level at 20 mg/kg, po once daily for 5 consecutive days starting from day 10 post infection measured on day 23 post infection by Neubauer chamber method relative to control; format: functional
[6] = as §2, with “ratio of creatine kinase in muscle to brain” for “serum LDH level”, “535” for “3275”; format: toxicity, organism-based; settings: in vivo
Trypanosoma cruzi [7] = assay: Trypanocidal activity against Trypanosoma cruzi MHOM/Pe/2011/Arequipa DTU 5 epimastigotes after 48 to 72 hrs by resazurin dye based assay; format: functional, organism-based
[8] = Selectivity index, ratio of IC50 for African green monkey Vero cells to IC50 for Trypanosoma cruzi TINF/CH/1956/Tulahuen DTU 6 amastigotes infected in African green monkey Vero cells; format: toxicity; settings: read-out: Ratio IC50
[9] = Nephrotoxicity in Balb/c mouse infected with Trypanosoma cruzi MHOM/Pe/2011/Arequipa DTU 5 trypomastigotes assessed as serum uric acid level at 20 mg/kg, po once daily for 5 consecutive days starting from day 75 post infection measured on day 127 post infection (reference value: 4.8 mg/dl); format: toxicity, organism-based; settings: in vivo
[10] = Selectivity index, ratio of IC50 for African green monkey Vero cells to IC50 for Trypanosoma cruzi MHOM/Pe/2011/Arequipa DTU 5 epimastigotes; format: toxicity; settings: read-out: Ratio IC50
[11] = as §1, with “decrease” for “increase”; format: toxicity, organism-based; parameters: scale not given: the % may be the effect or the level left; settings: in vivo
Trypanosoma cruzi [12] = assay: Trypanocidal activity against Trypanosoma cruzi IRHOD/CO/2008/SN3 DTU 1 trypomastigotes derived from infected Balb/c albino mouse after 24 hrs by resazurin dye based assay; format: functional, organism-based; settings: IRHOD/CO/2008/SN3 DTU 1, 24 h
[13] = Toxicity in Balb/c mouse assessed as death at 20 mg/kg, po once daily for 5 consecutive days starting from day 10 post infection; format: organism-based; settings: in vivo
Trypanosoma cruzi [14] = assay: Antitrypanosomal activity against Trypanosoma cruzi MHOM/Pe/2011/Arequipa DTU 5 epimastigotes assessed as effect on parasite glycolytic pathway by measuring decrease in ethanol excretion at IC25 after 72 hrs by 1H NMR method; format: functional; parameters: scale not given: the % may be the effect or the level left
[15] = Selectivity index, ratio of IC50 for African green monkey Vero cells to IC50 for Trypanosoma cruzi IRHOD/CO/2008/SN3 DTU 1 amastigotes infected in African green monkey Vero cells; format: toxicity; settings: read-out: Ratio IC50
[16] = Selectivity index, ratio of IC50 for African green monkey Vero cells to IC50 for Trypanosoma cruzi MHOM/Pe/2011/Arequipa DTU 5 trypomastigotes derived from infected Balb/c albino mouse; format: toxicity; settings: read-out: Ratio IC50
Trypanosoma cruzi [17] = assay: Antitrypanosomal activity against Trypanosoma cruzi MHOM/Pe/2011/Arequipa DTU 5 trypomastigotes infected in Balb/c mouse assessed as reduction in Ig-G level in serum at 20 mg/kg, po once daily for 5 consecutive days starting from day 75 post infection measured on day 81 post infection by ELISA; format: functional, organism-based
Trypanosoma cruzi [18] = assay: Trypanocidal activity against Trypanosoma cruzi IRHOD/CO/2008/SN3 DTU 1 amastigotes infected in African green monkey Vero cells after 72 hrs by Giemsa-staining based microscopic assay; format: functional, organism-based; settings: IRHOD/CO/2008/SN3 DTU 1, Vero
[19] = Nephrotoxicity in Balb/c mouse infected with Trypanosoma cruzi MHOM/Pe/2011/Arequipa DTU 5 trypomastigotes assessed as change in serum urea level at 20 mg/kg, po once daily for 5 consecutive days starting from day 10 post infection measured on day 127 post infection (reference value: 31 mg/dl); format: toxicity, organism-based; settings: in vivo
[20] = (§4) Hepatotoxicity in Balb/c mouse infected with Trypanosoma cruzi MHOM/Pe/2011/Arequipa DTU 5 trypomastigotes assessed as increase in ratio of serum ALT to GPT level at 20 mg/kg, po once daily for 5 consecutive days starting from day 10 post infection measured on day 127 post infection by biochemical analysis relative to control; format: toxicity, organism-based; settings: in vivo
Trypanosoma cruzi [21] = assay: (§5) Antitrypanosomal activity against Trypanosoma cruzi MHOM/Pe/2011/Arequipa DTU 5 trypomastigotes infected in Balb/c mouse assessed as reduction in Ig-G level in serum at 20 mg/kg, po pretreated once daily for 5 consecutive days starting from day 75 post infection followed by cyclophosphamide-induced immunosuppression on day 100 post infection every 4 days for a maximum of 3 doses measured on day 127 post infection by ELISA; format: functional, organism-based
[22] = Toxicity in Balb/c mouse assessed as reduction in body mass at 20 mg/kg, po once daily for 5 consecutive days starting from day 75 post infection relative to control; format: organism-based; parameters: scale not given: the % may be the effect or the level left; settings: in vivo
Trypanosoma cruzi [23] = assay: Inhibition of Trypanosoma cruzi MHOM/Pe/2011/Arequipa DTU 5 epimastigotes Fe-SOD at 50 uM by UV-Visible spectrophotometric method relative to control
Trypanosoma cruzi [24] = assay: as §3, with “measured every 2 to 3 days up to” for “measured on”, “day 50 post infection starting from day 7” for “day 23”, “method” for “method relative to control”; format: functional, organism-based
[25] = molecular target: Superoxide dismutase [Cu-Zn] (Homo sapiens, UniProt P00441); assay: Inhibition of human erythrocyte CuZn-SOD by UV-Visible spectrophotometric method
Superoxide dismutase [Cu-Zn], sequence (P00441 whole entry): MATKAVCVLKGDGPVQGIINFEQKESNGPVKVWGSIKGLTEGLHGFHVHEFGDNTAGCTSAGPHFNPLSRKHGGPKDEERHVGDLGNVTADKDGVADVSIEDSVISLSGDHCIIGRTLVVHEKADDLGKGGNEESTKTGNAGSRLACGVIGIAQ

Trypanosoma cruzi [26] = assay: as §5, with “parasite-free spleen” for “reduction in Ig-G level in serum”, “PCR method” for “ELISA”; format: functional, organism-based
[27] = Hepatotoxicity in Balb/c mouse infected with Trypanosoma cruzi MHOM/Pe/2011/Arequipa DTU 5 trypomastigotes assessed as decrease in serum ALT to GPT level at 20 mg/kg, po once daily for 5 consecutive days starting from day 10 post infection measured on day 16 post infection relative to control; format: toxicity, organism-based; parameters: scale not given: the % may be the effect or the level left; settings: in vivo
Trypanosoma cruzi [28] = assay: as §5, with “parasite-free heart” for “reduction in Ig-G level in serum”, “PCR method” for “ELISA”; format: functional, organism-based
[29] = as §4, with “Cardiotoxicity” for “Hepatotoxicity”, “decrease” for “increase”, “creatine kinase in muscle” for “serum ALT”, “brain” for “GPT level”, “16” for “127”; format: toxicity, organism-based; parameters: scale not given: the % may be the effect or the level left; settings: in vivo
Trypanosoma cruzi [30] = assay: as §5, with “parasite-free stomach” for “reduction in Ig-G level in serum”, “PCR method” for “ELISA”; format: functional, organism-based
Trypanosoma cruzi [31] = assay: as §5, with “parasite-free oesophagus” for “reduction in Ig-G level in serum”, “PCR method” for “ELISA”; format: functional, organism-based

Compound | Activity [2] | Activity [4] [U/L] | Activity (Trypanosoma cruzi [5]) | Activity [6] [U/L] | IC50 (Trypanosoma cruzi [7]) [µM] | selectivity ratio [8] | selectivity ratio [10] | Activity [11] | IC50 (Trypanosoma cruzi [12]) [µM] | Activity [13] | Activity (Trypanosoma cruzi [14]) [%] | selectivity ratio [15] | selectivity ratio [16] | Activity (Trypanosoma cruzi [17]) | IC50 (Trypanosoma cruzi [18]) [µM] | Activity [19] [mg/dL] | Activity (Trypanosoma cruzi [21]) | Activity [22] [%] | IC50 [25] [µM] | also measured
O=C(Cn1ccnc1[N+](=O)[O-])NCc1ccccc1 [BENZNIDAZOLE] | <= 10% | 3275 | Active | 535 | – | – | – | – | – | – | – | – | – | – | – | – | – | – | – | Activity [1]: <= 20%; Activity [3]: <= 10%
Cl.Cl.Cl.Cl.Cl.Cl.c1ccc2nc(CNCCN(CCNCc3ccc4ccccc4n3)CCNCc3ccc4ccccc4n3)ccc2c1 | – | 3275 | – | 535 | 15.1 | 707 | 110 | <= 10% | 1.1 | Non-Toxic | 38 | 1020 | 1360 | inactive | 1.6 | 34 | inactive | < 10 | > 100 | Activity [9]: 4.8 mg/dL; Activity [20]: <= 30%; inhibition (Trypanosoma cruzi [23]): 82%; Activity (Trypanosoma cruzi [24]): inactive
Cl.Cl.Cl.NCCN(CCN)CCNCc1ccc2c(c1)Cc1ccccc1-2 | <= 10% | – | 72% | – | 26.6 | 117 | 66.3 | <= 10% | 12.4 | Non-Toxic | 31 | 89.6 | 120 | inactive | 19.7 | 34 | Active | < 10 | > 100 | Activity (Trypanosoma cruzi [26]): Active; Activity [27]: <= 10%; Activity (Trypanosoma cruzi [28]): Active; Activity [29]: <= 10%; Activity (Trypanosoma cruzi [30]): Active; Activity (Trypanosoma cruzi [31]): Active
